Test results as given in ChEMBL document CHEMBL1201862, “PubChem BioAssay data set” (2004).
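Test compounds were applied to cells in 96-well plates for 48 hours at 5 doses. Here, GI50 denotes the concentration required for 50% inhibition of growth.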 Activity calls are given as the source filed them. Rule as the data show it: active = GI50 up to about 1.1 µM and inactive = higher.

Experiments:
Assay in all cases: NCI-60 cell line screen, 48 h
RPMI-8226 = tested on: RPMI-8226
786-0 = tested on: 786-0
Malme-3M = tested on: Malme-3M
MDA-N = tested on: MDA-N
SF-539 = tested on: SF-539
EKVX = tested on: EKVX
COLO 205 = tested on: COLO 205
UACC-257 = tested on: UACC-257
A498 = tested on: A498
OVCAR-4 = tested on: OVCAR-4
CCRF-CEM = tested on: CCRF-CEM
KM12 = tested on: KM12
HCC 2998 = tested on: HCC 2998
SR = tested on: SR
M14 = tested on: M14
A549 = tested on: A549
UACC-62 = tested on: UACC-62
SF-295 = tested on: SF-295
IGROV-1 = tested on: IGROV-1
HL-60 = tested on: HL-60
BT-549 = tested on: BT-549
MOLT-4 = tested on: MOLT-4
TK-10 = tested on: TK-10
PC-3 = tested on: PC-3
SNB-75 = tested on: SNB-75
RXF 393 = tested on: RXF 393
NCI/ADR-RES = tested on: NCI/ADR-RES
MCF7 = tested on: MCF7
OVCAR-3 = tested on: OVCAR-3
HT-29 = tested on: HT-29
Hs-578T = tested on: Hs-578T
NCI-H23 = tested on: NCI-H23
CAKI-1 = tested on: CAKI-1
SK-OV-3 = tested on: SK-OV-3
HCT-15 = tested on: HCT-15
NCI-H226 = tested on: NCI-H226
SK-MEL-5 = tested on: SK-MEL-5
NCI-H460 = tested on: NCI-H460
MDA-MB-435 = tested on: MDA-MB-435
ACHN = tested on: ACHN
MDA-MB-231 = tested on: MDA-MB-231
U-251 = tested on: U-251
UO-31 = tested on: UO-31
SN12C = tested on: SN12C
HOP-62 = tested on: HOP-62
OVCAR-8 = tested on: OVCAR-8
HCT-116 = tested on: HCT-116
SW-620 = tested on: SW-620
SNB-19 = tested on: SNB-19
NCI-H522 = tested on: NCI-H522
OVCAR-5 = tested on: OVCAR-5
SK-MEL-2 = tested on: SK-MEL-2
HOP-92 = tested on: HOP-92
DU-145 = tested on: DU-145
K562 = tested on: K562
SF-268 = tested on: SF-268
LOX IMVI = tested on: LOX IMVI
SK-MEL-28 = tested on: SK-MEL-28

With `CC(C)(CN1CCCCC1)C(=O)CC(SCCS(=O)(=O)O)c1ccc(Cl)cc1` (stereo not given) the GI50 (RPMI-8226) was 3.31 µM (inactive), the GI50 (786-0) was 3.31 µM (inactive) and the GI50 (Malme-3M) was 5.38 µM (inactive). The GI50 (MDA-N) was 2.81 µM (inactive), the GI50 (SF-539) was 2.3 µM (inactive) and the GI50 (EKVX) was 3.67 µM (inactive). The GI50 (COLO 205) was 2.86 µM (inactive), the GI50 (UACC-257) was 6.67 µM (inactive) and the GI50 (A498) was 4.26 µM (inactive). For the same molecule, the GI50 (OVCAR-4) was 3.84 µM (inactive), the GI50 (CCRF-CEM) was 2.74 µM (inactive) and the GI50 (KM12) was 4.31 µM (inactive). The GI50 (HCC 2998) was 12.3 µM (inactive), the GI50 (SR) was 2.18 µM (inactive) and the GI50 (M14) was 3.19 µM (inactive). The GI50 (A549) was 6.56 µM (inactive), the GI50 (UACC-62) was 4.21 µM (inactive) and the GI50 (SF-295) was 0.925 µM (active). For the same molecule, the GI50 (IGROV-1) was 6.15 µM (inactive), the GI50 (HL-60) was 6.18 µM (inactive) and the GI50 (BT-549) was 8.04 µM (inactive). The GI50 (MOLT-4) was 2.92 µM (inactive), the GI50 (TK-10) was 6.32 µM (inactive) and the GI50 (PC-3) was 4.44 µM (inactive). The GI50 (SNB-75) was 4.32 µM (inactive), the GI50 (RXF 393) was 3.1 µM (inactive) and the GI50 (NCI/ADR-RES) was 5.97 µM (inactive). The GI50 (MCF7) was 3.3 µM (inactive), the GI50 (OVCAR-3) was 5.22 µM (inactive) and the GI50 (HT-29) was 3.52 µM (inactive). The GI50 (Hs-578T) was 3.2 µM (inactive), the GI50 (NCI-H23) was 3.88 µM (inactive) and the GI50 (CAKI-1) was 6.73 µM (inactive). For the same molecule, the GI50 (SK-OV-3) was 15.5 µM (inactive), the GI50 (HCT-15) was 2.19 µM and the GI50 (NCI-H226) was 12 µM (inactive). For the same molecule, the GI50 (SK-MEL-5) was 7.41 µM (inactive), the GI50 (NCI-H460) was 6.41 µM (inactive) and the GI50 (MDA-MB-435) was 3.48 µM (inactive). The GI50 (ACHN) was 5.11 µM (inactive), the GI50 (MDA-MB-231) was 3.1 µM (inactive) and the GI50 (U-251) was 10.5 µM (inactive). For the same molecule, the GI50 (UO-31) was 4.86 µM (inactive), the GI50 (SN12C) was 4.56 µM (inactive) and the GI50 (HOP-62) was 11.5 µM (inactive). The GI50 (OVCAR-8) was 3.23 µM (inactive), the GI50 (HCT-116) was 3.03 µM (inactive) and the GI50 (SW-620) was 4.1 µM (inactive). The GI50 (SNB-19) was 14.8 µM (inactive), the GI50 (NCI-H522) was 2.51 µM (inactive) and the GI50 (OVCAR-5) was 1.86 µM (inactive). For the same molecule, the GI50 (SK-MEL-2) was 2.22 µM (inactive), the GI50 (HOP-92) was 2.26 µM (inactive) and the GI50 (DU-145) was 9.75 µM (inactive). For the same molecule, the GI50 (K562) was 3.09 µM (inactive).
With `C(=N/c1ccccc1C1SCCCS1)/c1ccccc1` the GI50 (RPMI-8226) was > 100 µM (inactive), the GI50 (786-0) was > 100 µM (inactive) and the GI50 (Malme-3M) was > 100 µM (inactive). For the same molecule, the GI50 (MDA-N) was > 100 µM (inactive), the GI50 (SF-539) was > 100 µM (inactive) and the GI50 (EKVX) was > 100 µM (inactive). The GI50 (COLO 205) was > 100 µM (inactive), the GI50 (UACC-257) was > 100 µM (inactive) and the GI50 (A498) was > 100 µM (inactive). The GI50 (SF-268) was > 100 µM (inactive), the GI50 (OVCAR-4) was > 100 µM (inactive) and the GI50 (CCRF-CEM) was > 100 µM (inactive). The GI50 (KM12) was > 100 µM (inactive), the GI50 (HCC 2998) was > 100 µM (inactive) and the GI50 (LOX IMVI) was > 100 µM (inactive). The GI50 (M14) was > 100 µM (inactive), the GI50 (A549) was > 100 µM (inactive) and the GI50 (UACC-62) was > 100 µM (inactive). For the same molecule, the GI50 (SF-295) was > 100 µM (inactive), the GI50 (IGROV-1) was > 100 µM (inactive) and the GI50 (HL-60) was 82.6 µM (inactive). The GI50 (BT-549) was > 100 µM (inactive), the GI50 (MOLT-4) was > 100 µM (inactive) and the GI50 (TK-10) was > 100 µM (inactive). The GI50 (PC-3) was > 100 µM (inactive), the GI50 (SNB-75) was > 100 µM (inactive) and the GI50 (RXF 393) was > 100 µM (inactive). The GI50 (NCI/ADR-RES) was > 100 µM (inactive), the GI50 (MCF7) was > 100 µM (inactive) and the GI50 (OVCAR-3) was > 100 µM (inactive). The GI50 (HT-29) was > 100 µM (inactive), the GI50 (Hs-578T) was > 100 µM (inactive) and the GI50 (NCI-H23) was > 100 µM (inactive). For the same molecule, the GI50 (CAKI-1) was > 100 µM (inactive), the GI50 (SK-OV-3) was > 100 µM (inactive) and the GI50 (HCT-15) was greater than 100 µM. The GI50 (SK-MEL-28) was > 100 µM (inactive), the GI50 (NCI-H226) was > 100 µM (inactive) and the GI50 (SK-MEL-5) was > 100 µM (inactive). For the same molecule, the GI50 (NCI-H460) was > 100 µM (inactive), the GI50 (MDA-MB-435) was > 100 µM (inactive) and the GI50 (ACHN) was > 100 µM (inactive). For the same molecule, the GI50 (MDA-MB-231) was > 100 µM (inactive), the GI50 (U-251) was > 100 µM (inactive) and the GI50 (UO-31) was > 100 µM (inactive). For the same molecule, the GI50 (SN12C) was > 100 µM (inactive), the GI50 (HOP-62) was > 100 µM (inactive) and the GI50 (OVCAR-8) was > 100 µM (inactive). For the same molecule, the GI50 (HCT-116) was > 100 µM (inactive), the GI50 (SW-620) was > 100 µM (inactive) and the GI50 (SNB-19) was > 100 µM (inactive). For the same molecule, the GI50 (NCI-H522) was > 100 µM (inactive), the GI50 (OVCAR-5) was > 100 µM (inactive) and the GI50 (SK-MEL-2) was > 100 µM (inactive). The GI50 (HOP-92) was > 100 µM (inactive), the GI50 (DU-145) was > 100 µM (inactive) and the GI50 (K562) was > 100 µM (inactive).
With `CCCCCCCCCCCCCCCCC(C(=O)O)C(O)(CC(=O)O)C(=O)O` (stereo not given) the GI50 (RPMI-8226) was 26.7 µM (inactive), the GI50 (786-0) was 35.2 µM (inactive) and the GI50 (Malme-3M) was 58.6 µM (inactive). The GI50 (MDA-N) was 47 µM (inactive), the GI50 (SF-539) was 28.1 µM (inactive) and the GI50 (EKVX) was 20.2 µM (inactive). For the same molecule, the GI50 (COLO 205) was 18.7 µM (inactive), the GI50 (UACC-257) was 34.1 µM (inactive) and the GI50 (A498) was 21 µM (inactive). The GI50 (SF-268) was 28.6 µM (inactive), the GI50 (CCRF-CEM) was 27.1 µM (inactive) and the GI50 (KM12) was 21.2 µM (inactive). The GI50 (SR) was 24.7 µM (inactive), the GI50 (LOX IMVI) was 26.5 µM (inactive) and the GI50 (M14) was 19.7 µM (inactive). For the same molecule, the GI50 (UACC-62) was 18.2 µM (inactive), the GI50 (SF-295) was 17.7 µM (inactive) and the GI50 (IGROV-1) was 22.1 µM (inactive). The GI50 (HL-60) was 14.8 µM (inactive), the GI50 (BT-549) was 20.3 µM (inactive) and the GI50 (MOLT-4) was 25.5 µM (inactive). For the same molecule, the GI50 (TK-10) was 34.8 µM (inactive), the GI50 (PC-3) was 19.5 µM (inactive) and the GI50 (SNB-75) was 20 µM (inactive). For the same molecule, the GI50 (RXF 393) was 22.1 µM (inactive), the GI50 (NCI/ADR-RES) was 57 µM (inactive) and the GI50 (MCF7) was 34.9 µM (inactive). The GI50 (OVCAR-3) was 18.5 µM (inactive), the GI50 (HT-29) was 21.2 µM (inactive) and the GI50 (Hs-578T) was 24.1 µM (inactive). For the same molecule, the GI50 (NCI-H23) was 29 µM (inactive), the GI50 (CAKI-1) was 21.4 µM (inactive) and the GI50 (SK-OV-3) was 17.7 µM (inactive). For the same molecule, the GI50 (HCT-15) was 21.5 µM, the GI50 (SK-MEL-28) was 23.9 µM (inactive) and the GI50 (NCI-H226) was 22.6 µM (inactive). For the same molecule, the GI50 (SK-MEL-5) was 39.1 µM (inactive), the GI50 (NCI-H460) was 17.5 µM (inactive) and the GI50 (MDA-MB-435) was 34.8 µM (inactive). The GI50 (ACHN) was 40.6 µM (inactive), the GI50 (MDA-MB-231) was 27.5 µM (inactive) and the GI50 (U-251) was 16.7 µM (inactive). For the same molecule, the GI50 (UO-31) was 20.3 µM (inactive), the GI50 (SN12C) was 21.7 µM (inactive) and the GI50 (HOP-62) was 17.2 µM (inactive). For the same molecule, the GI50 (OVCAR-8) was 39.1 µM (inactive), the GI50 (HCT-116) was 19.1 µM (inactive) and the GI50 (SW-620) was 20 µM (inactive). The GI50 (SNB-19) was 23.9 µM (inactive), the GI50 (OVCAR-5) was 17.9 µM (inactive) and the GI50 (SK-MEL-2) was 18.9 µM (inactive). For the same molecule, the GI50 (DU-145) was 35.6 µM (inactive) and the GI50 (K562) was 35.2 µM (inactive).
